Several values for one entry are separate records, joined by “and”; a condition that tells them apart may be missing. Equal entries are not always repeated. Numbered stars: 1 amine (or outer) side, 2 acyl side, 3 side chain; on linkers, the order of the positions; unused ones are H or OH. Peptide text beside a SMILES is read from it. * marks the point of attachment. Suc = O=C(CCC(=O)[*:2])[*:1]; Pyrrolidide = C1CCN(*)C1; NHiPr = CC(C)N*

This assay deals with T1, HSV-1 ribonucleotide reductase (Human herpesvirus 1, UniProt P08543).
T1 construct: HSV-1 ribonucleotide reductase (partially purified) was obtained from quiescent BHK-21/C13 cells infected with strain F HSV-1 virus; made in house; host or cells: quiescent BHK-21/C13 cells infected with HSV-1 strain F (10 pfu/cell); partially purified
T1 sequence (P08543 whole entry): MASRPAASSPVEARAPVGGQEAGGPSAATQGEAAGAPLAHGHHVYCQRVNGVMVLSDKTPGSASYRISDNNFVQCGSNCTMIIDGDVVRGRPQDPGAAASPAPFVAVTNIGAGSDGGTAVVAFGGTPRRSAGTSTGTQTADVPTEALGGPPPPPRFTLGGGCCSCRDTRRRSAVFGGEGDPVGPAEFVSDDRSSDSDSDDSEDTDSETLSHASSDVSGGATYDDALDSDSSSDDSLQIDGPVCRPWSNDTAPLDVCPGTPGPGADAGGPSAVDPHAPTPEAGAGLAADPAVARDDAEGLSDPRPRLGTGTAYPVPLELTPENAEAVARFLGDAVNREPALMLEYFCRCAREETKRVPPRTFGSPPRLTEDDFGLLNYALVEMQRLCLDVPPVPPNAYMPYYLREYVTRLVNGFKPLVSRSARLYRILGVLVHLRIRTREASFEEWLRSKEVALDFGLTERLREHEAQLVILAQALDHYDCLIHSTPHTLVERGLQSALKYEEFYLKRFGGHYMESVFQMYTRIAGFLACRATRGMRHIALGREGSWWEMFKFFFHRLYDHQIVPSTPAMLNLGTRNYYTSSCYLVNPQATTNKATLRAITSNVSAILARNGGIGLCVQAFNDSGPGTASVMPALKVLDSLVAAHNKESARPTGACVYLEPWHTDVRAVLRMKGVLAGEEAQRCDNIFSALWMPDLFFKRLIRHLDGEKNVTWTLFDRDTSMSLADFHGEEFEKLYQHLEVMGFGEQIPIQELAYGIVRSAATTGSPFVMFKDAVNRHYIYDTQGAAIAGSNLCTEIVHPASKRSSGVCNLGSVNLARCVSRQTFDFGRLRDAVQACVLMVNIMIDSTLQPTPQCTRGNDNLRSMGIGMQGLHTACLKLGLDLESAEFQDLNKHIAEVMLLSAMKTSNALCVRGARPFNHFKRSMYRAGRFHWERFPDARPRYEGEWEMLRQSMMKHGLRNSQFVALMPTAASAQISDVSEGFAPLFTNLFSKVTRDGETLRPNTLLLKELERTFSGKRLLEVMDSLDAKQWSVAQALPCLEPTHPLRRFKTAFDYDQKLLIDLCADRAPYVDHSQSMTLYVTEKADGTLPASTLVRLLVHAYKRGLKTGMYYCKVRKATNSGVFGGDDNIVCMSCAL
The assay can be described thus: biochemical. The note with it: IC50, concentration producing 50% of the maximal inhibition of enzyme activity; partially purified enzyme; mean of four assays. The source says: HSV-1 ribonucleotide reductase (partially purified) was obtained from quiescent BHK-21/C13 cells infected with strain F HSV-1 virus at 10 plaque forming units/cell as described by E. A. Cohen et at., J. Gem Virol., 66, 733 (1985).
By following the procedure described by P. Gaudreau et at., J. Biol, Chem., 262, 12413 (1987), the assay results listed in the following table were obtained. The assay result for each exemplified compound of formula 1 is expressed as the concentration of the compound producing 50% of the maximal inhibition (IC50) of enzyme activity. The number of units of the enzyme preparation used in each assay was constant, based on the specific activity of the enzyme preparation. The results are relative to the activity obtained in control experiments without the test compound and represent the mean of four assays that varied less than 10% with each other.
As to `CCC(CC)NC(=O)C1CCCCC1C(=O)N[C@@H](CC(=O)N1CCCC1)C(=O)N[C@@H](CC(=O)O)C(=O)N[C@@H](CC(C)C)C(=O)O` (stereo partly drawn) [Et2 CHNHCO-(cis-1,2-cyclohexanediyl)-CO-Asp(pyrrolidino)-Asp-Leu-OH], the IC50 (in general, the concentration that inhibits the measured activity by half) is 3.7 µM and 2.21 µM.
In the case of `CC(C)C[C@H](NC(=O)[C@H](CC(=O)O)NC(=O)[C@H](CC(=O)N1CCCC1)NC(=O)CCC(=O)NC(C)C)C(=O)O` [Me2 CHNHCOCH2 CH2 CO-Asp(pyrrolidino)-Asp-Leu-OH] ({NHiPr-Suc}-Asp(Pyrrolidide)-Asp-Leu-OH), the IC50 is 18 µM.
For the molecule `CC(C)C[C@H](NC(=O)[C@H](CC(=O)O)NC(=O)[C@H](CC(=O)N1CCCC1)NC(=O)CCC(=O)NC1CCCCC1)C(=O)O` [Cyclohexylamino-COCH2 CH2 CO-Asp(pyrrolidino)-Asp-Leu-OH], the IC50 is 22 µM.
`CCC(CC)NC(=O)CCC(=O)N[C@@H](CC(=O)N1CCCC1)C(=O)N[C@H](C(=O)NCCC(C)(C)C)C(C)(C)C(=O)O` [Et2 CHNHCOCH2 CH2 CO-Asp(pyrrolidino)-Asp(diMe)-NH[CH2 CH2 C(CH3)3 ]]: the midpoint of inhibition, the IC50, lay at 75 µM.
`CCC(CC)NC(=O)CCC(=O)N(C)[C@@H](CC(=O)N1CCCC1)C(=O)N[C@@H](CC(=O)O)C(=O)N[C@@H](CC(C)C)C(=O)O` [Et2 CHNHCOCH2 CH2 CO-(N-Me)-Asp(pyrrolidino)-Asp-Leu-OH] had an IC50 of 2 µM.
Take `CCC(CC)NC(=O)/C=C\C(=O)N[C@@H](CC(=O)N1CCCC1)C(=O)N[C@@H](CC(=O)O)C(=O)N[C@@H](CC(C)C)C(=O)O` [Et2 CHNHCO-(cis-CH=CH)-CO-Asp(pyrrolidino)-Asp-Leu-OH]: the midpoint of inhibition, the IC50, lay at 21 µM.
To `CCC(CC)NC(=O)C[C@H](C(=O)N[C@@H](CC(=O)N1CCCC1)C(=O)N[C@H](C(=O)N[C@@H](CC(C)(C)C)C(=O)O)C1(C(=O)O)CCCC1)C(C)(C)C` [Title Compound of Example 11, Et2 CHNH--COCH2 CH[(S)-C(CH3)3]CO--Asp(pyrrolidino)--Asp(cyPn)-γMeLeu--OH] belongs 0.17 µM; to `CCC(CC)NC(=O)CCC(=O)N[C@@H](CC(=O)OCCCCCl)C(=O)N[C@@H](CC(=O)O)C(=O)N[C@@H](CC(C)C)C(=O)O` [Et2 CHNHCOCH2 CH2 CO-Asp(4-chloro-butyloxy)-Asp-Leu-OH], 20 µM; to `CCCCCCCCN(C)C(=O)C[C@H](NC(=O)CCC(=O)NC(CC)CC)C(=O)N[C@H](C(=O)N[C@@H](CC(C)C)C(=O)O)C1(C(=O)O)CCCC1` [Et2 CHNHCOCH2 CH2 CO-Asp(N-Me-N-octyl)-Asp(cyPn)-Leu-OH], 0.73 µM.
`CCC(CC)NC(=O)CCC(=O)N[C@@H](CC(=O)N(C)CCOC(C)=O)C(=O)N[C@@H](CC(=O)O)C(=O)N[C@@H](CC(C)C)C(=O)O` [Et2 CHNHCOCH2 CH 2 CO-Asp[N(CH3)CH2-CH2 OCOCH3 ]-Asp-Leu-OH]: the IC50 came out at 9.9 µM.
In the case of `CCC(CC)NC(=O)c1ccccc1C(=O)N[C@@H](CC(=O)N1CCCC1)C(=O)N[C@@H](CC(=O)O)C(=O)N[C@@H](CC(C)C)C(=O)O` [Et2 CHNHCO-(1,2-phenylene)-CO-Asp(pyrrolidino)-Asp-Leu-OH], the IC50 came to 6.5 µM.
In turn, `CCC(CC)NC(=O)CCC(=O)N[C@@H](CC(=O)N1CCCC1)C(=O)N[C@H](C(=O)N[C@H](CO)CC(C)C)C1(C(=O)O)CCC1` [Et2 CHNHCOCH2 CH2,CO-Asp(pyrrolidino)-Asp(cyBu)-(L-leucinol)] yielded an IC50 of 5 µM.
Take `CCC(CC)NC(=O)CCC(=O)N[C@@H](CC(=O)N1CCCC1)C(=O)N[C@@H](CC(=O)O)C(=O)N[C@@H](CC(C)C)C(=O)O` [Title Compound of Example 10, Et2 CHNHCOCH2 CH2 CO--Asp(pyrrolidiono)--Asp-Leu--OH]: the IC50 came out at 2.9 µM.
To `CCC(CC)NC(=O)CCC(=O)N[C@@H](CC(=O)N(C)CCO)C(=O)N[C@@H](CC(=O)O)C(=O)N[C@@H](CC(C)C)C(=O)O` [Et2 CHNHCOCH2 CH2 CO-Asp[N(CH3)CH2-CH2 OH]-Asp-Leu-OH] belongs 11 µM.
To `CC(C)CNC(=O)CCC(=O)N[C@@H](CC(=O)N1CCCC1)C(=O)N[C@@H](CC(=O)O)C(=O)N[C@@H](CC(C)C)C(=O)O` [Me2 CHCH2 NHCOCH2 CH2 CO-Asp(pyrrolidino)-Asp-Leu-OH] belongs 75 µM.
As to `CCC(CC)NC(=O)CCC(=O)N[C@@H](CC(=O)OC1CCCCC1)C(=O)N[C@@H](CC(=O)O)C(=O)N[C@@H](CC(C)C)C(=O)O` [Et2 CHNHCOCH2 CH2 CO-Asp(cyclohexyloxy)-Asp-Leu-OH], it took 75 µM to reach half-maximal inhibition (IC50).
The molecule `CCC(CC)NC(=O)CCC(=O)N[C@@H](CC(=O)N1CCC(C)CC(C)(C)C1)C(=O)N[C@@H](CC(=O)O)C(=O)N[C@@H](CC(C)C)C(=O)O` (stereo partly drawn) [Et2 CHNHCOCH2 CH2 CO-Asp(3,3,5-trimethylhexahydroazepino)-Asp-Leu-OH] gave an IC50 of 12 µM.
Consider `CCC(CC)NC(=O)CCC(=O)N[C@@H](CC(=O)C1CCCC1)C(=O)N[C@@H](CC(=O)O)C(=O)N[C@@H](CC(C)C)C(=O)O` [Et2 CHNHCOCH2 CH2 CO-NHCH-(2-cyclopentyl-2-oxoethyl)-CO-Asp-Leu-OH], for which it took 3.4 µM to reach half-maximal inhibition (IC50).
The molecule `CCCCCC[C@H](C)OC(=O)C[C@H](NC(=O)CCC(=O)NC(CC)CC)C(=O)N[C@H](C(=O)N[C@@H](CC(C)C)C(=O)O)C1(C(=O)O)CCC1` [Et2 CHNHCOCH2 CH2 CO-Asp[1(S)-methylheptyloxy]-Asp(cyBu)-Leu-OH] came in with a half-inhibitory concentration (IC50) of 4.4 µM.
For `CCC(CC)NC(=O)CCC(=O)N[C@@H](CC(=O)N1CCC1)C(=O)N[C@@H](CC(=O)O)C(=O)N[C@@H](CC(C)C)C(=O)O` [Et2 CHNHCOCH2 CH2 CO-Asp(azetidino)-Asp-Leu-OH], the IC50 came out at 9.1 µM.
`CCCCCCCC(=O)C[C@H](NC(=O)CCC(=O)NC(CC)CC)C(=O)N[C@@H](CC(=O)O)C(=O)N[C@@H](CC(C)C)C(=O)O` [Et2 CHNHCOCH2 CH2 CO-NHCH-(2-oxononyl)-CO-Asp-Leu-OH]: the IC50 is 9 µM.

(Values after US5484771A, “Antiherpes peptide derivatives having a 1,4-dioxo-C, N-terminus” (priority 1994, dated 1996).)
